Experiments:
[1] = tested on: Rattus norvegicus; conditions: acute; oral; mortality
[2] = tested on: Bird; conditions: oral, mortality; for LD50: acute, unspecified; for LC50: short-term, feed

`CCC=CC=CCCCCCCOC(C)=O` (stereo in doubt) [(7Z,9E)-Dodeca-7,9-dienyl acetate] gave an LD50 [1] greater than 5000 mg/kg.
Compound `C/C=C/C=C/CCCCCCCO` [(8E,10E)-8,10-Dodecadien-1-ol] has an LD50 [1] greater than 5000 mg/kg and an LD50 [2] greater than 2050 mg/kg.
`CCC/C=C/CCCCCCCOC(C)=O` [(E)-Dodec-8-enyl acetate] showed an LD50 [1] greater than 5000 mg/kg.
With `CCCC/C=C\CCCCCCCCOC(C)=O` [(Z)-9-Tetradecenyl acetate] the LD50 [1] was greater than 5000 mg/kg.
`CCCC/C=C\CCCCCCCCCC=O` [(Z)-11-Hexadecenal] showed an LD50 [1] greater than 5000 mg/kg, an LD50 [2] greater than 2250 mg/kg and an LC50 [2] greater than 5620 mg/kg.
`CC/C=C\CCCCCCCCOC(C)=O` [(Z)-Dodec-9-enyl acetate] was tested, and the LD50 [1] was greater than 5000 mg/kg.
For `CC/C=C\CCCCCCCCCCOC(C)=O` [(Z)-Tetradec-11-enyl acetate], the LD50 [1] was greater than 5000 mg/kg.
Work on `CCCC/C=C/CC/C=C\CCCCCCOC(C)=O` [Hexadeca-7,11-dien-1-yl acetate (Z,E)-] yielded an LD50 [1] greater than 5000 mg/kg, an LD50 [2] greater than 2250 mg/kg and an LC50 [2] greater than 5620 mg/kg.
